Test results taken from ChEMBL document CHEMBL6103648, “AI-Driven Discovery of Highly Specific and Efficacious hCES2A Inhibitors for Ameliorating Irinotecan-Triggered Gut Toxicity” (J Med Chem, 2025).
≈ marks a conversion by molar mass, not a printed value. Calls of active or inactive are those of the source. The calls are words filed in the database; no cut-off is given here.

Columns and labels:
Mus musculus [1] = assay: Inhibition of irinotecan-triggered gut toxicity in C57BL/6J mouse bearing tumor cells assessed as increase in occludin level in colon tissue at 25 to 50 mg/kg/day, po treated for 14 days by immunofluorescence based analysis; type: functional, organism-based; conditions: dose 25-50 mg/kg/day, time 14.0 day
Acetylcholinesterase = Acetylcholinesterase (Homo sapiens, UniProt P22303); assay: Inhibition of human AChE using ATCI as substrate incubated for 3 mins by Ellman's method
[2] = Sub-acute toxicity in C57BL/6J mouse assessed as change in ALP level at 100 mg/kg/day, po treated for 14 days consecutively; type: organism-based; conditions: in vivo, 336 h, time 14 day
Mus musculus [3] = assay: Inhibition of irinotecan-triggered gut toxicity in C57BL/6J mouse bearing tumor cells assessed as intact structures in colon tissue at 25 to 50 mg/kg/day, po treated for 14 days by H and E staining based analysis; type: functional, organism-based; conditions: dose 25-50 mg/kg/day, time 14.0 day
[4] = Sub-acute toxicity in C57BL/6J mouse assessed as change in CREA level at 100 mg/kg/day, po treated for 14 days consecutively; type: organism-based; conditions: in vivo, 336 h, time 14 day
Dipeptidyl peptidase 4 = Dipeptidyl peptidase 4 (Homo sapiens, UniProt P27487); assay: Inhibition of human serum DPP-IV using GP-BAN as substrate preincubated for 3 mins followed by substrate addition by fluorescence based assay
[5] = Sub-acute toxicity in C57BL/6J mouse assessed as body weight change at 100 mg/kg/day, po treated for 14 days consecutively; type: organism-based; conditions: in vivo, 336 h, time 14 day
[6] = Sub-acute toxicity in C57BL/6J mouse assessed as abnormality in brain at 100 mg/kg/day, po treated for 14 days consecutively by H and E staining based analysis; type: organism-based; conditions: in vivo, 336 h, time 14 day
[7] = Apparent permeability across basal to apical side in human Caco-2 cells at 25 uM incubated for 120 mins by UPLC-MS/MS analysis; type: ADME, cell-based
Mus musculus [8] = assay: Inhibition of irinotecan-induced anti-tumor activity in C57BL/6J mouse bearing tumor cells assessed as increase in tumor weight at 25 to 50 mg/kg/day, po treated for 14 days; type: functional, organism-based; conditions: dose 25-50 mg/kg/day, time 14.0 day
[9] = Inhibition of human CES2A incubated for 3 mins
Mus musculus [10] = assay: Inhibition of irinotecan-triggered gut toxicity in C57BL/6J mouse bearing tumor cells assessed as increase in ZO-1 level in colon tissue at 25 to 50 mg/kg/day, po treated for 14 days by immunofluorescence based analysis; type: functional, organism-based; conditions: dose 25-50 mg/kg/day, time 14.0 day
[11] = Inhibition of human CES2A incubated for 33 mins
[12] = Permeability across basal to apical side in human Caco-2 cells assessed as cumulative penetration amount at 25 uM incubated for 120 mins by UPLC-MS/MS analysis; type: ADME, cell-based; conditions: caco-2, 2 h
Cytochrome P450 1A2 = biological target: T1, Cytochrome P450 1A2 (Homo sapiens, UniProt P05177); assay: Inhibition of CYP1A2 in human liver microsomes using phenacetin as substrate upto 10 uM; type: ADME, Microsome
T1 sequence (P05177 whole entry): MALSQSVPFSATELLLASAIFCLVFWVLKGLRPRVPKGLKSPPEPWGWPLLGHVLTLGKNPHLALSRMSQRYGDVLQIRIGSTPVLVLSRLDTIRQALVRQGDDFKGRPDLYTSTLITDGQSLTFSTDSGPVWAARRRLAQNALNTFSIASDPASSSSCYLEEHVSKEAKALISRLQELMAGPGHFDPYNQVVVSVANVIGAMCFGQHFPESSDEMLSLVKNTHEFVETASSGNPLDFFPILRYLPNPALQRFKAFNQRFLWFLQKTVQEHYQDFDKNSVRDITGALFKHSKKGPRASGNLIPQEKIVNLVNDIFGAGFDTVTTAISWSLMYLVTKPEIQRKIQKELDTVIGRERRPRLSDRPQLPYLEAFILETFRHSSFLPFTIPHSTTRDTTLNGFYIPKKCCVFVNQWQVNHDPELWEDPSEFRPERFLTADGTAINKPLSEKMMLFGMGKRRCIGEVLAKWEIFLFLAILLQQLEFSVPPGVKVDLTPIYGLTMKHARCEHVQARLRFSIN

[13] = Sub-acute toxicity in C57BL/6J mouse assessed as change in ALT level at 100 mg/kg/day, po treated for 14 days consecutively; type: organism-based; conditions: in vivo, 336 h, time 14 day
Mus musculus [14] = assay: Inhibition of irinotecan-triggered gut toxicity in C57BL/6J mouse bearing tumor cells assessed as decrease in serum AST level at 25 to 50 mg/kg/day, po treated for 14 days; type: functional, organism-based; conditions: dose 25-50 mg/kg/day, time 14.0 day
[15] = Sub-acute toxicity in C57BL/6J mouse assessed as abnormality in spleen at 100 mg/kg/day, po treated for 14 days consecutively by H and E staining based analysis; type: organism-based; conditions: in vivo, 336 h, time 14 day
[16] = Sub-acute toxicity in C57BL/6J mouse assessed as abnormality in heart at 100 mg/kg/day, po treated for 14 days consecutively by H and E staining based analysis; type: organism-based; conditions: in vivo, 336 h, time 14 day
Mus musculus [17] = assay: Inhibition of irinotecan-triggered gut toxicity in C57BL/6J mouse bearing tumor cells assessed as decrease in serum CREA level at 25 to 50 mg/kg/day, po treated for 14 days; type: functional, organism-based; conditions: dose 25-50 mg/kg/day, time 14.0 day
Homo sapiens [18] = species on record: Homo sapiens; assay: (§1) Covalent inhibition of human CES2A
[19] = as §1
[20] = Permeability across basal to apical side in human Caco-2 cells assessed as cumulative penetration amount at 100 uM incubated for 120 mins by UPLC-MS/MS analysis; type: ADME, cell-based; conditions: caco-2, 2 h
[21] = Aqueous solubility of compound by UPLC-MS/MS analysis; type: physicochemical; conditions: buffer
[22] = Sub-acute toxicity in C57BL/6J mouse assessed as abnormality in gastrointestinal tract at 100 mg/kg/day, po treated for 14 days consecutively by H and E staining based analysis; type: organism-based; conditions: in vivo, 336 h, time 14 day
[23] = Sub-acute toxicity in C57BL/6J mouse assessed as change in TP level at 100 mg/kg/day, po treated for 14 days consecutively; type: organism-based; conditions: in vivo, 336 h, time 14 day
[24] = Sub-acute toxicity in C57BL/6J mouse assessed as change in movement behaviors at 100 mg/kg/day, po treated for 14 days consecutively; type: organism-based; conditions: in vivo, 336 h, time 14 day
[25] = Apparent permeability across apical to basal side in human Caco-2 cells at 25 uM incubated for 120 mins by UPLC-MS/MS analysis; type: ADME, cell-based
Homo sapiens [26] = species on record: Homo sapiens; assay: Inhibition of human CES2A assessed as decrease in residual activity measured upto 30 mins; conditions: dose <= 1.6 nM
[27] = Sub-acute toxicity in C57BL/6J mouse assessed as change in UREA level at 100 mg/kg/day, po treated for 14 days consecutively; type: organism-based; conditions: in vivo, 336 h, time 14 day
[28] = Inhibition of human CES2A using fluorescein diacetate as substrate preincubated for 3 mins followed by substrate addition measured after 30 mins by fluorescence based assay
[29] = Drug distribution in stomach of C57BL/6J mouse at 100 mg/kg, po administered as single dose measured for 0.5 to 3 hrs by UHPLC-Q-Orbitrap HRMS analysis; type: ADME, organism-based; conditions: in vivo, time 0.5-3 hrs
[30] = Drug distribution in jejunum of C57BL/6J mouse at 100 mg/kg, po administered as single dose measured for 0.5 to 3 hrs by UHPLC-Q-Orbitrap HRMS analysis; type: ADME, organism-based; conditions: in vivo, time 0.5-3 hrs

Chain of Dipeptidyl peptidase 4 (P27487 whole entry): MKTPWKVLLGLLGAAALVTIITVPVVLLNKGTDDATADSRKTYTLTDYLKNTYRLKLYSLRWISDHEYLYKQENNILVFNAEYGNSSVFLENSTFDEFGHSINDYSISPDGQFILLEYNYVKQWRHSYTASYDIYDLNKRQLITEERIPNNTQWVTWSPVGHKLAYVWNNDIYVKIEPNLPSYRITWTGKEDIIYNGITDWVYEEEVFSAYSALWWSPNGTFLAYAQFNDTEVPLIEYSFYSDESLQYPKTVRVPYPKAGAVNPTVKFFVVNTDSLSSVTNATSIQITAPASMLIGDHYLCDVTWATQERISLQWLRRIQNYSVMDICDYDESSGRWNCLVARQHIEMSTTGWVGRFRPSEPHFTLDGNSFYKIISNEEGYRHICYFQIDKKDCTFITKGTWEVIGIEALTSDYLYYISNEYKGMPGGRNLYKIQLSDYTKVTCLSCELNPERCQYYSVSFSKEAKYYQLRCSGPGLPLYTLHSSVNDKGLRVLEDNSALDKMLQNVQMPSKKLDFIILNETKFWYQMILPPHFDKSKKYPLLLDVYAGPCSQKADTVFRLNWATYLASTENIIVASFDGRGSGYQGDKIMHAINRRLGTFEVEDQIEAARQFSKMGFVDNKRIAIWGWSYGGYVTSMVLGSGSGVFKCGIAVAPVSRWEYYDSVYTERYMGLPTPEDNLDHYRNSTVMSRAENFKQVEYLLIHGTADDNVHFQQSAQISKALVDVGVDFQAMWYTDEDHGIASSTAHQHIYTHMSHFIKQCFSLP
Chain of Acetylcholinesterase (P22303 whole entry): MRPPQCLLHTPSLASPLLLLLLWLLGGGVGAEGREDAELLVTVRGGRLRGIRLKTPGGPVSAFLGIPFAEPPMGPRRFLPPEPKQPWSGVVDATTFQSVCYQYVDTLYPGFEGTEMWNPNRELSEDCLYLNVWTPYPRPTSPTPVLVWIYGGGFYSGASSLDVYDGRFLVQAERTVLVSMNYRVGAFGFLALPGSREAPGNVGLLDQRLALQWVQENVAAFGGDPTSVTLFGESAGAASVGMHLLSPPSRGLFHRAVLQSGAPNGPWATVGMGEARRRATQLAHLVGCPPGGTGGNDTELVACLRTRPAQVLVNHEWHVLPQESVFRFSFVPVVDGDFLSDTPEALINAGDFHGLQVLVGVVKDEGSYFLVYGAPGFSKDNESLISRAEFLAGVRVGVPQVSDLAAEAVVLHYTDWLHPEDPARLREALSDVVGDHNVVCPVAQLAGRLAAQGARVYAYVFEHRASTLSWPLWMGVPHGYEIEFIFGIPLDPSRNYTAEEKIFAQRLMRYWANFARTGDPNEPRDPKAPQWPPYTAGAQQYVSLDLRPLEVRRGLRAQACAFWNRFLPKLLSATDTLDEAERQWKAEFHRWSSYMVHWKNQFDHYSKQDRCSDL

CCN(C)C(=O)Oc1ccc(C(=O)N2CCC(Cc3ccccc3)CC2)cc1OC
inhibition (Mus musculus [1]): Active | IC50 (Acetylcholinesterase): > 10000 nM | Activity [2]: Non-toxic | inhibition (Mus musculus [3]): Active | Activity [4]: Non-toxic | IC50 (Dipeptidyl peptidase 4): > 10000 nM | Activity [5]: Non-toxic | Activity [6]: Non-toxic | Papp B→A at 2 h, 25 µM [7]: 10.1 ×10⁻⁶ cm/s | inhibition (Mus musculus [8]): inactive | IC50 [9]: 0.69 nM | inhibition (Mus musculus [10]): Active | IC50 [11]: 0.04 nM | Activity [12]: 2.03 µM | inhibition (INH) (Cytochrome P450 1A2): Not_active | Activity [13]: Non-toxic | inhibition (Mus musculus [14]): Active | Activity [15]: Non-toxic | Activity [16]: Non-toxic | inhibition (Mus musculus [17]): Active | Kinact (Homo sapiens [18]): 0.033 min⁻¹ | Ki [19]: 0.065 nM | Activity [20]: 6.29 µM | solubility [21]: 32 µg/mL (≈ 78 µM) | Activity [22]: Non-toxic | Activity [23]: Non-toxic | Activity [24]: Non-toxic | Papp A→B at 2 h, 25 µM [25]: 15.7 ×10⁻⁶ cm/s | inhibition (Homo sapiens [26]): Dose-dependent-effect | Activity [27]: Non-toxic | IC50 [28]: 0.69 nM | Drug uptake [29]: Active | Drug uptake [30]: Active
